The subject of this assay is mu opiate receptor. Briefly: Binding to the mu opiate receptor.

As for H-Tyr-Pro-Trp-Phe-NH2 [SEQ ID NO:1], the “Potency for the mu opiate receptor” value is listed as “very potent”.

Values taken from patent US11324798B2, “Materials and methods for treatment of inflammation” (CYTOGEL PHARMA, LLC, priority 2010, dated 2022).
